Results taken from patent publication US12685777B2, “Compositions, systems, and methods for modulating a target gene” (The Board of Trustees of the Leland Stanford Junior …, priority 2022, dated 2026).

These compounds were tested against T1, bromodomain 1 of BRD4 and BTB domain of BCL6 (Homo sapiens, UniProt O60885+P41182, C67R/C84N/C8Q) (assay: TR-FRET assay of ternary complex formation). Details: 1 hr at room temperature, 520 nm/490 nm ratio.
T1 construct: contains amino acids 5-129 with three mutations, C8Q, C67R, C84N
Assay type: binding
Protocol: Reaction was incubated for 1 hr at room temperature, and subsequently the fluorescence at 520 nm and 490 nm was measured. The 520 nm/490 nm ratio is plotted respective to DMSO control. The two lower curves are performed by addition of Neg1 and Neg2 instead of JWZ-7-7. […] The structure of JWZ-7-7 is provided in FIG. 2 and the structures of Neg1 and Neg2 are provided below:
Each reaction contained 100 nM BRD4^BD1, 100 nM BCL6BTB-Avi-Biot, 20 nM Streptavidin-FITC (Thermo #SA1001), and 1:400 anti-6×His terbium antibody (PerkinElmer #61H12TLF) in 10 μL of buffer containing 20 mM HEPES, 150 mM NaCl, 0.1% BSA, 0.1% NP-40, and 1 mM TCEP in a 384-well plate. Protein was incubated with drug digitally dispensed (Tecan D300e) for 1 hour in the dark at room temperature before excitation at 337 nm and measurement of emission at 520 nm (FITC) and 490 nm (terbium) with a PHERAstar FS plate reader (BMG Labtech). The ratio of signal at 520 nm to 490 nm was calculated and normalized to DMSO-treated conditions, and plotted.

Row | SMILES | Ternary complex formation (TR-FRET)
1 | CNC(=O)COc1cc2cc(Nc3nc(N4CCC(C(=O)NCCCCCCNC(=O)C[C@@H]5N=C(c6ccc(Cl)cc6)c6c(sc(C)c6C)-n6c(C)nnc65)CC4)ncc3Cl)cc(OC)c2n(C)c1=O [JWZ-7-6, (S)-1-(5-chloro-4-((8-methoxy-1-methyl-3-(2-(methylamino)-2-oxoethoxy)-2-oxo-1,2-dihydroquinolin-6-yl)amino)pyrimidin-2-yl)-N-(6-(2-(4-(4-chlorophenyl)-2,3,9-trimethyl-6H-thieno[3,2-f][1,2,4]triazolo[4,3-a][1,4]diazepin-6-yl)acetamido)hexyl)piperidine-4-carboxamide] | showed ternary complex formation
2 | CNC(=O)COc1cc2cc(Nc3nc(N4CCC(C(=O)NCCN5CCN(CCNC(=O)C[C@@H]6N=C(c7ccc(Cl)cc7)c7c(sc(C)c7C)-n7c(C)nnc76)CC5)CC4)ncc3Cl)cc(OC)c2n(C)c1=O [JWZ-7-13, (S)-1-(5-chloro-4-((8-methoxy-1-methyl-3-(2-(methylamino)-2-oxoethoxy)-2-oxo-1,2-dihydroquinolin-6-yl)amino)pyrimidin-2-yl)-N-(2-(4-(2-(2-(4-(4-chlorophenyl)-2,3,9-trimethyl-6H-thieno[3,2-f][1,2,4]triazolo[4,3-a][1,4]diazepin-6-yl)acetamido)ethyl)piperazin-1-yl)ethyl)piperidine-4-carboxamide] | showed ternary complex formation
3 | CNC(=O)COc1cc2cc(Nc3nc(N4CCC(C(=O)NCCCN5CCN(CCCNC(=O)C[C@@H]6N=C(c7ccc(Cl)cc7)c7c(sc(C)c7C)-n7c(C)nnc76)CC5)CC4)ncc3Cl)cc(OC)c2n(C)c1=O [JWZ-7-14, (S)-1-(5-chloro-4-((8-methoxy-1-methyl-3-(2-(methylamino)-2-oxoethoxy)-2-oxo-1,2-dihydroquinolin-6-yl)amino)pyrimidin-2-yl)-N-(3-(4-(3-(2-(4-(4-chlorophenyl)-2,3,9-trimethyl-6H-thieno[3,2-f][1,2,4]triazolo[4,3-a][1,4]diazepin-6-yl)acetamido)propyl)piperazin-1-yl)propyl)piperidine-4-carboxamide] | showed ternary complex formation
4 | CNC(=O)COc1cc2cc(Nc3nc(N4CCC(C(=O)NCCCCCCCCCNC(=O)C[C@@H]5N=C(c6ccc(Cl)cc6)c6c(sc(C)c6C)-n6c(C)nnc65)CC4)ncc3Cl)cc(OC)c2n(C)c1=O [JWZ-7-15, (S)-1-(5-chloro-4-((8-methoxy-1-methyl-3-(2-(methylamino)-2-oxoethoxy)-2-oxo-1,2-dihydroquinolin-6-yl)amino)pyrimidin-2-yl)-N-(9-(2-(4-(4-chlorophenyl)-2,3,9-trimethyl-6H-thieno[3,2-f][1,2,4]triazolo[4,3-a][1,4]diazepin-6-yl)acetamido)nonyl)piperidine-4-carboxamide] | showed ternary complex formation

More lines, now with the values ahead:

Row | Ternary complex formation (TR-FRET) | SMILES
5 | showed ternary complex formation | CNC(=O)COc1cc2cc(Nc3nc(N4CCC(C(=O)NCCCCCCCCCCNC(=O)C[C@@H]5N=C(c6ccc(Cl)cc6)c6c(sc(C)c6C)-n6c(C)nnc65)CC4)ncc3Cl)cc(OC)c2n(C)c1=O [JWZ-7-20, (S)-1-(5-chloro-4-((8-methoxy-1-methyl-3-(2-(methylamino)-2-oxoethoxy)-2-oxo-1,2-dihydroquinolin-6-yl)amino)pyrimidin-2-yl)-N-(10-(2-(4-(4-chlorophenyl)-2,3,9-trimethyl-6H-thieno[3,2-f][1,2,4]triazolo[4,3-a][1,4]diazepin-6-yl)acetamido)decyl)piperidine-4-carboxamide]
6 | showed ternary complex formation | CNC(=O)COc1cc2cc(Nc3nc(N4CCN(CCCCCCCCCCCNC(=O)C[C@@H]5N=C(c6ccc(Cl)cc6)c6c(sc(C)c6C)-n6c(C)nnc65)CC4)ncc3Cl)cc(OC)c2n(C)c1=O [JWZ-7-22, (S)-2-((6-((5-chloro-2-(4-(11-(2-(4-(4-chlorophenyl)-2,3,9-trimethyl-6H-thieno[3,2-f][1,2,4]triazolo[4,3-a][1,4]diazepin-6-yl)acetamido)undecyl)piperazin-1-yl)pyrimidin-4-yl)amino)-8-methoxy-1-methyl-2-oxo-1,2-dihydroquinolin-3-yl)oxy)-N-methylacetamide]
7 | showed ternary complex formation | CNC(=O)COc1cc2cc(Nc3nc(N4CCN(CCCCCCCCNC(=O)C[C@@H]5N=C(c6ccc(Cl)cc6)c6c(sc(C)c6C)-n6c(C)nnc65)CC4)ncc3Cl)cc(OC)c2n(C)c1=O [JWZ-7-23, (S)-2-((6-((5-chloro-2-(4-(8-(2-(4-(4-chlorophenyl)-2,3,9-trimethyl-6H-thieno[3,2-f][1,2,4]triazolo[4,3-a][1,4]diazepin-6-yl)acetamido)octyl)piperazin-1-yl)pyrimidin-4-yl)amino)-8-methoxy-1-methyl-2-oxo-1,2-dihydroquinolin-3-yl)oxy)-N-methylacetamide]
8 | showed ternary complex formation | CNC(=O)COc1cc2cc(Nc3nc(N4CCC(C(=O)NCCCOCCCNC(=O)C[C@@H]5N=C(c6ccc(Cl)cc6)c6c(sc(C)c6C)-n6c(C)nnc65)CC4)ncc3Cl)cc(OC)c2n(C)c1=O [JWZ-7-97, (S)-1-(5-chloro-4-((8-methoxy-1-methyl-3-(2-(methylamino)-2-oxoethoxy)-2-oxo-1,2-dihydroquinolin-6-yl)amino)pyrimidin-2-yl)-N-(3-(3-(2-(4-(4-chlorophenyl)-2,3,9-trimethyl-6H-thieno[3,2-f][1,2,4]triazolo[4,3-a][1,4]diazepin-6-yl)acetamido)propoxy)propyl)piperidine-4-carboxamide]
9 | showed ternary complex formation | CNC(=O)COc1cc2cc(Nc3nc(N4CCC(C(=O)N5CCC6(CC5)CN(CCNC(=O)C[C@@H]5N=C(c7ccc(Cl)cc7)c7c(sc(C)c7C)-n7c(C)nnc75)C6)CC4)ncc3Cl)cc(OC)c2n(C)c1=O [JWZ-7-98, (S)-2-((6-((5-chloro-2-(4-(2-(2-(2-(4-(4-chlorophenyl)-2,3,9-trimethyl-6H-thieno[3,2-f][1,2,4]triazolo[4,3-a][1,4]diazepin-6-yl)acetamido)ethyl)-2,7-diazaspiro[3.5]nonane-7-carbonyl)piperidin-1-yl)pyrimidin-4-yl)amino)-8-methoxy-1-methyl-2-oxo-1,2-dihydroquinolin-3-yl)oxy)-N-methylacetamide]
10 | showed ternary complex formation | CNC(=O)COc1cc2cc(Nc3nc(N4CCC(C(=O)NCCCN(C)CCCNC(=O)C[C@@H]5N=C(c6ccc(Cl)cc6)c6c(sc(C)c6C)-n6c(C)nnc65)CC4)ncc3Cl)cc(OC)c2n(C)c1=O [JWZ-7-100, (S)-1-(5-chloro-4-((8-methoxy-1-methyl-3-(2-(methylamino)-2-oxoethoxy)-2-oxo-1,2-dihydroquinolin-6-yl)amino)pyrimidin-2-yl)-N-(3-((3-(2-(4-(4-chlorophenyl)-2,3,9-trimethyl-6H-thieno[3,2-f][1,2,4]triazolo[4,3-a][1,4]diazepin-6-yl)acetamido)propyl)(methyl)amino)propyl)piperidine-4-carboxamide]
